Patent US11771124B2, “Composition comprising mannose oligosaccharide and process for making same and use thereof” (CARGILL, INCORPORATED, priority 2017, dated 2023)
Marks after values point to notes of the source that are not given here.

Columns and labels:
[1] = Trial 3: broiler performance with or without chlortetracycline; assay type: in vivo, broiler chickens; settings: Composition A dose 0.02%
C2Be1 cell line = test: Intestinal cell proliferation in vitro (BrdU ELISA); assay type: cell-based
Description: Cells were treated with products under serum-limited conditions for 4-5 days. BrdU ELISA is used to measure the amount of proliferation, where it measures the amount of BrdU incorporated into proliferating cells (the more proliferation, the more BrdU that will be detected in the DNA of the cells). Levels of proliferation are expressed as a ratio calculated by dividing the BrdU incorporation of test wells by that of the controls that has medium only. […] The assay is repeated in triplicate on two separate occasions. […]

In the case of `CN(C)[C@@H]1C(O)=C(C(N)=O)C(=O)[C@@]2(O)C(O)=C3C(=O)c4c(O)ccc(Cl)c4[C@@](C)(O)[C@H]3C[C@@H]12` [CTC, chlortetracycline], the BW35 ([1]; broiler chickens up to 35 days of age) is reported as 1978.6^b g, the “ADFI 0-35” value ([1]; broiler chickens) is reported as 90.8c g and the “ADG 0-35” value ([1]; broiler chickens) is reported as 55.4^b g. For the same compound, the BW0 ([1]; broiler chickens) was 40.2^ns g and the “F:G 0-35” value ([1]; broiler chickens) was 1.64^b.

With “EGF: epithelial growth factor, positive control known to affect cell proliferation” the “% compared to media only (control), Mean” value (C2Be1 cell line; EGF concentration 10) was 113.5%, the “Proliferation Ratio (relative to control = 1), Mean” value (C2Be1 cell line; EGF concentration 10) was 1.13 and the “% compared to media only (control), Mean” value (C2Be1 cell line; EGF concentration 100) was 119.6%. The “Proliferation Ratio (relative to control = 1), Mean” value (C2Be1 cell line; EGF concentration 100) was 1.20.
